Experimental data as given in patent US20220313658A1, “YAP Inhibition for Wound Healing” (The Board of Trustees of the Leland Stanford Junior …, priority 2019, published 2022).

Tests used:
[1] = system: reticular dermal (Dlk1^+) ENFs; assay: Fractionated ENF subpopulations cultured on TCPS with or without ROCK inhibitor; assay type: cell-based, mouse; conditions: 14 days, ROCK inhibitor added
Description: (§1) Mice were euthanized by CO2 narcosis and cervical dislocation, the dorsal fur was clipped, a depilatory cream was applied topically to the dorsum for 30 seconds. Next, the dorsal skin was harvested using dissecting scissors by separation along fascial planes, the subcutaneous fat was trimmed with a scalpel, and the skin was rinsed in betadine, followed by 5 rinses in cold PBS. To achieve a cell suspension, the harvested skin was finely minced using sharp scissors, enzymatically digested (Liberase DL, 0.5 mg/mL, 1 hour), and filtered through a 40 μm nylon mesh. ENFs and EPFs were isolated from En-1^Cre;R26^mTmG mice (En-1 lineage-negative cells, mTomato^+; En-1 lineage-positive cells, GFP^+) via a previously reported FACS strategy. Briefly, a lineage gate (Lin) for hematopoietic (CD45, Ter-119), endothelial (CD31, Tie2), and epithelial (CD326, CD324) cell markers was used as a negative gate to isolate fibroblasts (Lin^−), which were sorted into ENFs (Tornato^+GFP^−Lin^−) and EPFs (Tomato^−GFP+ Lin^−). To isolate ENF subpopulations, dorsal skin cells were harvested from P1 En-1^Cre,Ai6 mice (En-1 lineage-negative cells, no fluorescence; En-1 lineage-positive cells, GFP^+) via mechanical and enzymatic digestion as described above. […]

ENFs = ENFs cultured on stiff tissue culture plastic (TCPS) with ROCK inhibitor: En-1 activation; assay type: cell-based, mouse; conditions: bulk ENFs on stiff TCPS with ROCK inhibitor, 14 days in culture
Description: as §1

C[C@@H](N)[C@H]1CC[C@H](C(=O)Nc2ccncc2)CC1 [Y-27632]
En-1 activation in Dlk1+ ENFs [1]: blocked | En-1 activation (conversion of ENFs to GFP+ EPFs) (ENFs): lack of En-1 activation
